Legend:
Experiment in all cases: Kinase panel, residual activity
Type in all cases: biochemical
Details in all cases: read-out: Percent residual activity
CDK7/cyclinH/MAT1(h) = CDK7/cyclinH/MAT1(h) (Homo sapiens, UniProt P50613)
Procedure: (§1) In this panel of 124 kinases, 18 of the 19 kinases identified as having an active site cysteine were inhibited to some extent by hypothemycin at a concentration of 0.2 μM and/or 2 μM.

CK1δ(h) = CK1δ(h) (Homo sapiens, UniProt P48730)
Procedure: as §1

Flt1(h) = Flt1(h) (Homo sapiens, UniProt P17948)
Procedure: as §1

PDGFRβ(h) = PDGFRβ(h) (Homo sapiens, UniProt P09619)
Procedure: as §1

Fms(h) = Fms(h) (Homo sapiens, UniProt P07333)
Procedure: as §1

EphB4(h) = EphB4(h) (Homo sapiens, UniProt P54760)
Procedure: as §1

SAPK2b(h) = SAPK2b(h) (Homo sapiens, UniProt Q15759)
Procedure: as §1

PKCγ(h) = PKCγ(h) (Homo sapiens, UniProt P05129)
Procedure: as §1

Fer(h) = Fer(h) (Homo sapiens, UniProt P16591)
Procedure: as §1

PAR-1Bα(h) = PAR-1Bα(h) (Homo sapiens, UniProt Q7KZI7)
Procedure: as §1

Abl(h) = Abl(h) (Homo sapiens, UniProt P00519)
Procedure: as §1

cKit(h) = cKit(h) (Homo sapiens, UniProt P10721)
Procedure: as §1

PKCβII(h) = PKCβII(h) (Homo sapiens, UniProt P05771)
Procedure: as §1

PKCδ(h) = PKCδ(h) (Homo sapiens, UniProt Q05655)
Procedure: as §1

Fgr(h) = Fgr(h) (Homo sapiens, UniProt P09769)
Procedure: as §1

Flt3(D835Y)(h) = Flt3(D835Y)(h) (Homo sapiens, UniProt P36888, D835Y)
Procedure: as §1

CHK1(h) = CHK1(h) (Homo sapiens, UniProt O14757)
Procedure: as §1

CaMKIV(h) = CaMKIV(h) (Homo sapiens, UniProt Q16566)
Procedure: as §1

PKCμ(h) = PKCμ(h) (Homo sapiens, UniProt Q15139)
Procedure: as §1

MINK(h) = MINK(h) (Homo sapiens, UniProt Q8N4C8)
Procedure: as §1

Ron(h) = Ron(h) (Homo sapiens, UniProt Q04912)
Procedure: as §1

PKCα(h) = PKCα(h) (Homo sapiens, UniProt P17252)
Procedure: as §1

SAPK4(h) = SAPK4(h) (Homo sapiens, UniProt O15264)
Procedure: as §1

PKCζ(h) = PKCζ(h) (Homo sapiens, UniProt Q05513)
Procedure: as §1

NEK2(h) = NEK2(h) (Homo sapiens, UniProt P51955)
Procedure: as §1

Syk(h) = Syk(h) (Homo sapiens, UniProt P43405)
Procedure: as §1

PRK2(h) = PRK2(h) (Homo sapiens, UniProt Q16513)
Procedure: as §1

ZIPK(h) = ZIPK(h) (Homo sapiens, UniProt O43293)
Procedure: as §1

Rsk1(h) = Rsk1(h) (Homo sapiens, UniProt Q15418)
Procedure: as §1

IKKα(h) = IKKα(h) (Homo sapiens, UniProt O15111)
Procedure: as §1

KDR = KDR (Homo sapiens, UniProt P35968)
Procedure: as §1

PKCι(h) = PKCι(h) (Homo sapiens, UniProt P41743)
Procedure: as §1

FGFR3(h) = FGFR3(h) (Homo sapiens, UniProt P22607)
Procedure: as §1

JNK3(h) = JNK3(h) (Homo sapiens, UniProt P53779)
Procedure: as §1

PKA(h) = PKA(h) (Homo sapiens, UniProt P17612)
Procedure: as §1

NEK7(h) = NEK7(h) (Homo sapiens, UniProt Q8TDX7)
Procedure: as §1

CDK1/cyclinB(h) = CDK1/cyclinB(h) (Homo sapiens, UniProt P06493)
Procedure: as §1

RIPK2(h) = RIPK2(h) (Homo sapiens, UniProt O43353)
Procedure: as §1

Chain of Fms(h) (P07333 20-972): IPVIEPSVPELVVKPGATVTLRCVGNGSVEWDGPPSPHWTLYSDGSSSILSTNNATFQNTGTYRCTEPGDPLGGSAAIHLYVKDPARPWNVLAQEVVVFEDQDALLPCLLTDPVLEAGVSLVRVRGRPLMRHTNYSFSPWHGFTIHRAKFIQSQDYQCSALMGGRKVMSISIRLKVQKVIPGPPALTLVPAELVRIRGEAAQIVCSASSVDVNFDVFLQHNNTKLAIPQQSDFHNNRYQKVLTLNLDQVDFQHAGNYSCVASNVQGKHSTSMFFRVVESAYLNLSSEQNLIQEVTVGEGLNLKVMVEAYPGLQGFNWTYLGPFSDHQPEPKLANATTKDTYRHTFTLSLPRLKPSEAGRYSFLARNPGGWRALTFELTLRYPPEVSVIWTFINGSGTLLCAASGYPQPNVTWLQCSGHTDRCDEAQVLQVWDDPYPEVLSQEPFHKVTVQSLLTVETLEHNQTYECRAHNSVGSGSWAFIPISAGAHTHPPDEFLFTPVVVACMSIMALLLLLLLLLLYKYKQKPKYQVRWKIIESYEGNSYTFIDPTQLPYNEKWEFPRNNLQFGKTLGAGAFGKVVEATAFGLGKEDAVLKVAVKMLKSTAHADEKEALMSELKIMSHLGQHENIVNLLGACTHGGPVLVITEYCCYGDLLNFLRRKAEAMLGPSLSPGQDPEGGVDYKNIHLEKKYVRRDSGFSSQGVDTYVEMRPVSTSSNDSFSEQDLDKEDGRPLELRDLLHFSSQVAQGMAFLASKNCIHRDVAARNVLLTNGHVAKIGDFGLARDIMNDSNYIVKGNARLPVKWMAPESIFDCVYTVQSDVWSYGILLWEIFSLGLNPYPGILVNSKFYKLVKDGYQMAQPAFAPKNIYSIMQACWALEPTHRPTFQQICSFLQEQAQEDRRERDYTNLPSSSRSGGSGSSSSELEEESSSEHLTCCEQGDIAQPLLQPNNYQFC
Chain of PDGFRβ(h) (P09619 33-1106): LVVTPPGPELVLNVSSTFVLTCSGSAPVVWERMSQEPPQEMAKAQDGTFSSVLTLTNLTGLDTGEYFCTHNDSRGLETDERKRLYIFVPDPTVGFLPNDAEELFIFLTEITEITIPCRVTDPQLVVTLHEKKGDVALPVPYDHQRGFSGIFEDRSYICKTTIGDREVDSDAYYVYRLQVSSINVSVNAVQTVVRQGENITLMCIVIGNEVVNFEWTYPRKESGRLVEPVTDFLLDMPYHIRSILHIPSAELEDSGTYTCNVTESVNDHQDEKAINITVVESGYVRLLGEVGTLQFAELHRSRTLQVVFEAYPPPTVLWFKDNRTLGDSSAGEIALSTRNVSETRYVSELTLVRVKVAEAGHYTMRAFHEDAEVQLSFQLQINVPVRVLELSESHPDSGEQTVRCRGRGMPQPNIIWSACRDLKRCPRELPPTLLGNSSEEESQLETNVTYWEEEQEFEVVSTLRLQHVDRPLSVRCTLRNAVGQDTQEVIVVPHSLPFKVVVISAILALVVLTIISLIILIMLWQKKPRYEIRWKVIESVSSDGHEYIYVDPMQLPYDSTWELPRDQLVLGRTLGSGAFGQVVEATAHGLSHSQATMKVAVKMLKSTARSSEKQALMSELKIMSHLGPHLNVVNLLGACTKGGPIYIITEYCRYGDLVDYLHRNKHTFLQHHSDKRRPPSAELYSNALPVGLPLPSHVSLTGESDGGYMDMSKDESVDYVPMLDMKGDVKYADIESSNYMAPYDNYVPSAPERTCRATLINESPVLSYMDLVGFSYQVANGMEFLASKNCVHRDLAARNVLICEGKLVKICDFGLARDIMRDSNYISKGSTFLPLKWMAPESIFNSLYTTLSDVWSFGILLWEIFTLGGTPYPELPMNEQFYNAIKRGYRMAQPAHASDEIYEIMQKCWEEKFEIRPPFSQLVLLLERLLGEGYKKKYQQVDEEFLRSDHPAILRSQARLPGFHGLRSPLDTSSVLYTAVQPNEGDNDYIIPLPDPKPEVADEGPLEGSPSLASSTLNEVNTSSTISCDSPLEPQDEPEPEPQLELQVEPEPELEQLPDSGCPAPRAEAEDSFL
Chain of PKCμ(h) (Q15139 whole entry): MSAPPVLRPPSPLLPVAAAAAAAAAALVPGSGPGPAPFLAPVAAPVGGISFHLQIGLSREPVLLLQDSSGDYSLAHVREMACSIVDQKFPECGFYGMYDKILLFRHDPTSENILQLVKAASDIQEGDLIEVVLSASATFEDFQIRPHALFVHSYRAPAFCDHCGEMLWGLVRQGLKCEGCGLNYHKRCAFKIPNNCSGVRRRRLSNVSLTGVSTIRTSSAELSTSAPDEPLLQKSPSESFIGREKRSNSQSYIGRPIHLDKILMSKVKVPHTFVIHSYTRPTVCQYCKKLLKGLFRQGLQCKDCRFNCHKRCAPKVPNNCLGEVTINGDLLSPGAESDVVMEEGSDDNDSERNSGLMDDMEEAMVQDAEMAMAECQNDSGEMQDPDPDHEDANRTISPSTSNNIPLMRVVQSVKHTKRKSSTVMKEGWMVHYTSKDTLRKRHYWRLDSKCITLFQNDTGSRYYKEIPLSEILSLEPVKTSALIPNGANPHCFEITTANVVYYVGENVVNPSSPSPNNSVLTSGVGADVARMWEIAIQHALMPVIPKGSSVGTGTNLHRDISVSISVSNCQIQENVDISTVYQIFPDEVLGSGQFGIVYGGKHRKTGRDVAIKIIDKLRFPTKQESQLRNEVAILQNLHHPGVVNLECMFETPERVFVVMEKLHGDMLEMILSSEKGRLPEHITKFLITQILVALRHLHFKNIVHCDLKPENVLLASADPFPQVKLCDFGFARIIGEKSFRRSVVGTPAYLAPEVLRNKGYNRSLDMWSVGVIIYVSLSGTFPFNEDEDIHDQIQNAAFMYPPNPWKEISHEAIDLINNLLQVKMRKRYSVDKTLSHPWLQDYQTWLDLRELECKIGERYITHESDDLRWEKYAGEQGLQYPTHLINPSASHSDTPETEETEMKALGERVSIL
Chain of cKit(h) (P10721 26-976): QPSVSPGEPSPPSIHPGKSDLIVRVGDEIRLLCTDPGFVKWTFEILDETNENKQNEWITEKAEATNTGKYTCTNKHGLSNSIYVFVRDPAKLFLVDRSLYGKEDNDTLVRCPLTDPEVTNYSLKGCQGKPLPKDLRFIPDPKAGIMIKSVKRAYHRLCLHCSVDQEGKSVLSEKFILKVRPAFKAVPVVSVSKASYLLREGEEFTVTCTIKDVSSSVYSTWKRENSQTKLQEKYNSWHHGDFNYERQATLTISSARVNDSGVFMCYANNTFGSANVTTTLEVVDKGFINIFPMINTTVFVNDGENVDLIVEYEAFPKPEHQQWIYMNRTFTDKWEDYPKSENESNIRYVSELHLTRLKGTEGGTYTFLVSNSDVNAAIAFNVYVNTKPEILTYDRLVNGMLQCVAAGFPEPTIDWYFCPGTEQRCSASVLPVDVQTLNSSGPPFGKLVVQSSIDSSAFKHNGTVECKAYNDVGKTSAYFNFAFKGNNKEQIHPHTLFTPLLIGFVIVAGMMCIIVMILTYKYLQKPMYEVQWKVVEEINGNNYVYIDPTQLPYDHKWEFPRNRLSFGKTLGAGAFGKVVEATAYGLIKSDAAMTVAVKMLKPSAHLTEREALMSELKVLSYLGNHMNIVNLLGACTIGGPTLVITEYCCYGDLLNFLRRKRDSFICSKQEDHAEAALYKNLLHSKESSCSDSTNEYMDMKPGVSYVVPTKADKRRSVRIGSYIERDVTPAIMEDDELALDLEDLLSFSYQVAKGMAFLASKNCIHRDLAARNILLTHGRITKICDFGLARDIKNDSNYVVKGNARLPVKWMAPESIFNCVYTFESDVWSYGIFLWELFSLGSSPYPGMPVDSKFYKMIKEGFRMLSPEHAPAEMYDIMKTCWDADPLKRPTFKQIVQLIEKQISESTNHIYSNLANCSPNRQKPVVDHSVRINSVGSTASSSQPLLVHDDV
Chain of Fgr(h) (P09769 whole entry): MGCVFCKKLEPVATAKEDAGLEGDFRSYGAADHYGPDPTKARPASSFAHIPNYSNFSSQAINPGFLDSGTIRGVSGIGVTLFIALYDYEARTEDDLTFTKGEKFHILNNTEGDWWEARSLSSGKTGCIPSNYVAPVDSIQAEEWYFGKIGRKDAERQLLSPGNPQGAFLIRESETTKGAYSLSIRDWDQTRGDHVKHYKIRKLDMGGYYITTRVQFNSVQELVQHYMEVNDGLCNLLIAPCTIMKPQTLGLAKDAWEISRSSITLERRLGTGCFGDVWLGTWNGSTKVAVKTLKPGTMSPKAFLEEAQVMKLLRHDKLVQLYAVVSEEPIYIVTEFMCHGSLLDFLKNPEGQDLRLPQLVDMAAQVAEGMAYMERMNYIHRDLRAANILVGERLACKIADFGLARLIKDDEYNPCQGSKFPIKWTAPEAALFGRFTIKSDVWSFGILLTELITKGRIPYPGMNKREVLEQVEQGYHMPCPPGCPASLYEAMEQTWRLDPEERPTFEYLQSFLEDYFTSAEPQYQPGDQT
Chain of PKCζ(h) (Q05513 whole entry): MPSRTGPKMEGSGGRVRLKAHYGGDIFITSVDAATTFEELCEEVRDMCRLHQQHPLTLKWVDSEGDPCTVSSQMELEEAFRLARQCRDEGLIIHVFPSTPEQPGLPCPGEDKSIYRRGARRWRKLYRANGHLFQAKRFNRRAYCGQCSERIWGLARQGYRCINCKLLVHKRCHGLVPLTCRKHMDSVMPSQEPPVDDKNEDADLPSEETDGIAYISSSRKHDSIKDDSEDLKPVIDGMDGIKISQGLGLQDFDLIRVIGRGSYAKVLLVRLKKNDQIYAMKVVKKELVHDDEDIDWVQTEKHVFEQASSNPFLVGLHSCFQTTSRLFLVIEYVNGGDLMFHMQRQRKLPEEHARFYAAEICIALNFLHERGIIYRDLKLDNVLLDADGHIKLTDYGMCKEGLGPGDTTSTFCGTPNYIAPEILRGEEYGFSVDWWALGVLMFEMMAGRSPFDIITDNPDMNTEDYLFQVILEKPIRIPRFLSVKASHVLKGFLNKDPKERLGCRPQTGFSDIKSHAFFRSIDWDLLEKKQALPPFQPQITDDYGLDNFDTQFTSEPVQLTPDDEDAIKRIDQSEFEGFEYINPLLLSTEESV

`COc1cc(O)c2c(c1)[C@H]1O[C@@H]1C[C@H](O)[C@H](O)C(=O)/C=C\C[C@H](C)OC2=O` [Hypothemycin, hypothemycin] gave a remaining activity at 0.2 µM (CDK7/cyclinH/MAT1(h)) of 101%, a remaining activity at 0.2 µM (CK1δ(h)) of 105% and a remaining activity at 0.2 µM (Flt1(h); 0.2 μM) of 2%. The remaining activity at 2 µM (Flt1(h); 2.0 μM) was 7%, the remaining activity at 0.2 µM (PDGFRβ(h); 0.2 μM) was 73% and the remaining activity at 2 µM (PDGFRβ(h); 2.0 μM) was 40%. For the same compound, the remaining activity at 0.2 µM (Fms(h); 0.2 μM) was 91%, the remaining activity at 2 µM (Fms(h); 2.0 μM) was 90% and the remaining activity at 0.2 µM (EphB4(h)) was 82%. It also gave a remaining activity at 0.2 µM (SAPK2b(h)) of 104%, a remaining activity at 0.2 µM (PKCγ(h)) of 98% and a remaining activity at 0.2 µM (Fer(h)) of 102%. It also gave a remaining activity at 0.2 µM (PAR-1Bα(h)) of 93%, a remaining activity at 0.2 µM (Abl(h)) of 98% and a remaining activity at 0.2 µM (cKit(h); 0.2 μM) of 93%. It also gave a remaining activity at 2 µM (cKit(h); 2.0 μM) of 21%, a remaining activity at 0.2 µM (PKCβII(h)) of 97% and a remaining activity at 0.2 µM (PKCδ(h)) of 96%. The remaining activity at 0.2 µM (Fgr(h)) was 100%, the remaining activity at 0.2 µM (Flt3(D835Y)(h); 0.2 μM) was 4% and the remaining activity at 2 µM (Flt3(D835Y)(h); 2.0 μM) was 2%. It also gave a remaining activity at 0.2 µM (CHK1(h)) of 94%, a remaining activity at 0.2 µM (CaMKIV(h)) of 102% and a remaining activity at 0.2 µM (PKCμ(h); 0.2 μM) of 34%. The remaining activity at 2 µM (PKCμ(h); 2.0 μM) was 6%, the remaining activity at 0.2 µM (MINK(h)) was 88% and the remaining activity at 0.2 µM (Ron(h)) was 91%. It also gave a remaining activity at 0.2 µM (PKCα(h)) of 96%, a remaining activity at 0.2 µM (SAPK4(h)) of 101% and a remaining activity at 0.2 µM (PKCζ(h)) of 94%. The remaining activity at 0.2 µM (NEK2(h)) was 99%, the remaining activity at 0.2 µM (Syk(h)) was 105% and the remaining activity at 0.2 µM (PRK2(h)) was 108%. For the same compound, the remaining activity at 0.2 µM (ZIPK(h)) was 96%, the remaining activity at 0.2 µM (Rsk1(h)) was 100% and the remaining activity at 0.2 µM (IKKα(h)) was 101%. It also gave a remaining activity at 2 µM (KDR) of 15%, a remaining activity at 0.2 µM (PKCι(h)) of 108% and a remaining activity at 0.2 µM (FGFR3(h)) of 102%. For the same compound, the remaining activity at 0.2 µM (JNK3(h)) was 76%, the remaining activity at 0.2 µM (PKA(h)) was 108% and the remaining activity at 0.2 µM (NEK7(h)) was 98%. For the same compound, the remaining activity at 0.2 µM (CDK1/cyclinB(h)) was 89% and the remaining activity at 0.2 µM (RIPK2(h)) was 101%.

From patent US20100004234A1, “SPECIFIC KINASE INHIBITORS” (Kosan Biosciences Incorporated, priority 2004, published 2010)
